Active and inactive are the calls of the source. How the calls were made is not given here.
Target: Furin (Homo sapiens) (UniProt P09958)
Experiment: human furin protease inhibitors, confirmation, biochemical, fluorescence intensity (AID 463180)
Conditions: Recombinant furin, fluorogenic substrate cleavage, at 50 µM, active compounds read high

Chain of Furin (Homo sapiens) (P09958 108-714 limits assumed): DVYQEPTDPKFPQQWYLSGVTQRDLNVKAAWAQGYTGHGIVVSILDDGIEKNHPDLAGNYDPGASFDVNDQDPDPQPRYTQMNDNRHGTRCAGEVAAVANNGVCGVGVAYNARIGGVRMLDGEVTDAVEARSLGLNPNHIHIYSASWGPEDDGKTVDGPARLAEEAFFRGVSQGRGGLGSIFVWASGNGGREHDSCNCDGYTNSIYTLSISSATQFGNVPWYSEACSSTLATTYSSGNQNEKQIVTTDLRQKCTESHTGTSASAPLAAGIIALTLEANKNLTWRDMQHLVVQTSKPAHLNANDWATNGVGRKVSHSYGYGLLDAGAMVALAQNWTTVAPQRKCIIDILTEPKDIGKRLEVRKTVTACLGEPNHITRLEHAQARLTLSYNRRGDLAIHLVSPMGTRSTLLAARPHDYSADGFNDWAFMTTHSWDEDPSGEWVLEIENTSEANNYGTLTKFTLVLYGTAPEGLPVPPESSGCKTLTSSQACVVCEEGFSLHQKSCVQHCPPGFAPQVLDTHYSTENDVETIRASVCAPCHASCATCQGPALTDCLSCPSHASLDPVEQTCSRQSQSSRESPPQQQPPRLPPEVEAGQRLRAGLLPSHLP

Compound `CSc1nc(N)c(N=Nc2ccc([As](=O)(O)O)cc2)c(=O)[nH]1` has an inhibition of 15.9%.

For `CCCOP(=O)(c1ccc(N(C)C)cc1)C(Nc1ccccc1)c1ccc(N(C)C)cc1` (stereo not given), the inhibition was 31.5%.

In the case of `CN1CCN(c2ccccc2NC(=O)c2cccc(OCc3ccccc3)c2)CC1`, the inhibition was -16% (inactive).

With `COC(=O)c1ccc(Cn2nc(C)c(Cl)c2C)o1` the inhibition was -14.9% (inactive).

In the case of `O=C(COc1ccc(Cl)cc1Cl)NC(=O)N1CCOCC1`, the inhibition was -20.4% (inactive).

`O=C(CN1C(=O)c2ccccc2C1=O)Nc1sc2c(c1C(=O)NCc1ccco1)CCCC2` was tested, and the inhibition was -11.4% (inactive).

`Cc1cccc(/N=C/C2=C(O)CC(C)(C)CC2=O)n1` gave an inhibition of 13.1%.

In the case of `COC(=O)c1ccc(NC2(C#N)C(=O)Nc3ccccc32)cc1` (stereo not given), the inhibition was -18.6% (inactive).

`CCOC(=O)NC(=O)CSc1nnnn1-c1ccccc1` was tested, and the inhibition was -19.1% (inactive).

For `COc1ccc(S(=O)(=O)NCCC(=O)NCc2ccc(F)cc2)cc1`, the inhibition was -20.3% (inactive).

`COc1ccc(/C=N/n2c(=O)[nH]c3c([nH]c4ccc(C)cc43)c2=O)cc1CN1CCOCC1` was tested, and the inhibition was -14% (inactive).

`CCOC(=O)c1cc(CC)sc1/N=C/C1=C(O)CCCC1=O` was tested, and the inhibition was -4.4% (inactive).

`Cc1nc(SCc2ccc(O)c([N+](=O)[O-])c2)n[nH]1` was tested, and the inhibition was 0.762% (inactive).

With `O=C(CCN1C(=O)c2ccccc2C1=O)N(CCO)Cc1ccccc1` the inhibition was -16.7% (inactive).

In the case of `COc1cc(S(=O)(=O)Nc2ncccc2C)c(OC)cc1Cl`, the inhibition was -4.1% (inactive).

In the case of `COc1cccc(-n2nnc3c(=O)n(Cc4ccccc4Cl)cnc32)c1`, the inhibition was -14.9% (inactive).

With `CC1(C)CC(=O)C(C=Nc2cccnc2/N=C/C2=C(O)CC(C)(C)CC2=O)=C(O)C1` the inhibition was 0.675% (inactive).

In the case of `NC(=O)c1ccccc1N/C=C/C(=O)c1ccc(F)cc1`, the inhibition was -9.67% (inactive).

With `Cc1c(NC(=O)c2ccc(Cl)c(S(=O)(=O)N3CCOCC3)c2)c(=O)n(-c2ccccc2)n1C` the inhibition was -23.3% (inactive).

With `CCCCCCN1C=CC=C/C1=C/C=C(C#N)C#N` the inhibition was 6.58% (inactive).

`COc1ccc(N=CC2=C(O)CC(C)(C)CC2=O)cc1` was tested, and the inhibition was 8.92% (inactive).

In the case of `CC(=O)NC(C)c1nc2ccccc2n1Cc1ccccc1F` (stereo not given), the inhibition was -16.7% (inactive).

In the case of `OC1C2CN3CCN(C2)CC1(Cc1ccccc1)C3` (stereo not given), the inhibition was -20.6% (inactive).

`COC(=O)c1[nH]c2ccccc2c1NC(=O)CN1CCC(C(N)=O)(N2CCCCC2)CC1` was tested, and the inhibition was -12.8% (inactive).

`CCCOc1ccc(C2NC(=O)NC2=O)cc1` (stereo not given) was tested, and the inhibition was -10.8% (inactive).

With `CCOC(=O)C(CC)Sc1nnc(COc2ccc(C)cc2)n1-c1ccccc1` (stereo not given) the inhibition was -0.94% (inactive).

In the case of `CCOC(=O)c1cc(C)sc1/N=C/C1C(=O)CCCC1=O`, the inhibition was -15.3% (inactive).

With `CC1(C)CC(=O)C(C=Nc2ccc(Cl)cn2)=C(O)C1` the inhibition was -4.84% (inactive).

In the case of `O=C(NCc1ccccc1)C1COc2ccccc2O1` (stereo not given), the inhibition was -16.5% (inactive).

For `Cn1ncc(Cl)c1C(=O)Nc1cccc(Cl)c1`, the inhibition was -11% (inactive).

For `CCSc1ccccc1C(=O)Nc1nncs1`, the inhibition was -22.6% (inactive).

With `Cc1cc(N=CC2=C(O)CCCC2=O)no1` the inhibition was -4.93% (inactive).

In the case of `CCn1c(C)c(CCC(=O)O)c(=O)n2nc(-c3ccccc3OC)cc12`, the inhibition was -22.2% (inactive).

In the case of `CN1/C(=C\C=C2C(=O)NC(=O)NC2=O)C(C)(C)c2ccccc21`, the inhibition was 1.52% (inactive).

`COc1ccc(NC(=O)CSc2nncn2C)cc1OC` was tested, and the inhibition was -12.4% (inactive).

For `O=C(C1Cc2ccccc2CN1S(=O)(=O)c1cccs1)N1CCCCC1` (stereo not given), the inhibition was -7.18% (inactive).

With `COC(=O)C1C(=O)/C(=C/N(C)C)C(=O)CC1(C)C` (stereo not given) the inhibition was 4.91% (inactive).

With `CCC(Sc1ncccc1C(=O)O)C(=O)N1CCCC1` (stereo not given) the inhibition was -20.2% (inactive).

For `O=C(c1ccco1)N1CCN(C2CC(=O)N(c3ccc4c(c3)OCO4)C2=O)CC1` (stereo not given), the inhibition was -17% (inactive).

With `Cc1cc(N=CC2=C(O)CC(C)(C)CC2=O)no1` the inhibition was -1.24% (inactive).

For `CCC(C)C(NC(=O)C1CCC(C)CC1)C(=O)NCc1cccnc1` (stereo not given), the inhibition was -18.4% (inactive).

With `COc1nc(C)ccc1-c1noc(-c2ccccn2)n1` the inhibition was -16.6% (inactive).

In the case of `COc1ccccc1C(=O)NC(C)C(c1cccs1)N1CCOCC1` (stereo not given), the inhibition was -25.9% (inactive).

`CCOC(=O)C(CC)Sc1nc2c(c(=O)[nH]c(=O)n2C)n1C/C=C(/C)Cl` (stereo not given) was tested, and the inhibition was -19.2% (inactive).

With `Cc1ccccc1-n1c(O)c(C=Nc2ccc(N(C)C)cc2)c(=O)[nH]c1=O` the inhibition was 20.3%.

Work on `CC1(C)CC(=O)C(C=Nc2cccnc2)=C(O)C1` yielded an inhibition of 21.6%.

For `O=C(Cc1c[nH]c2ccccc12)N1CCc2ccccc21`, the inhibition was -24.6% (inactive).

In the case of `C=CCn1c(O)c(/C=N/NC(=O)c2ccncc2)c(=O)[nH]c1=O`, the inhibition was 5.98% (inactive).

For `CC(=O)Nc1cc(-c2ccc(Cl)cc2)nn1-c1ccccc1`, the inhibition was -20% (inactive).

For `O=C1CC(c2ccccc2)CC(=O)C1=CN1CCCC1` (stereo not given), the inhibition was 1.13% (inactive).

`O=C(Nc1ccccc1)N(CCN1CCOCC1)Cc1ccccc1F` was tested, and the inhibition was -13% (inactive).

For `CCOC(=O)c1cc(C)sc1/N=C/C1=C(O)CCCC1=O`, the inhibition was -5.31% (inactive).

With `O=C1CC(=C2c3ccccc3-c3ccccc32)C(=O)N1CCCCN1CCN(c2ccccc2)CC1` the inhibition was 9.51% (inactive).

`Cc1cccc(/C=C2/S/C(=N/N=C3\CC4CCC3(C)C4(C)C)NC2=O)c1` (stereo not given) was tested, and the inhibition was 12.3%.

Work on `Cc1cccc(-n2c(O)c(/C=C/C=Nc3ccccc3)c(=O)[nH]c2=O)c1` yielded an inhibition of 14.2%.

For `CCOC(=O)C(C(=O)NCC1CCCO1)C1CCCCC1` (stereo not given), the inhibition was -17.6% (inactive).

With `COC(=O)c1[nH]c2cc(OC)ccc2c1NC(=O)CCN1CCCCC1` the inhibition was -14.9% (inactive).

`CNC(=O)C1CC(=O)N(CCc2ccc(OC)cc2)C(=Nc2ccc(OC)cc2)S1` (stereo not given) was tested, and the inhibition was -13.8% (inactive).

With `CC1(C)CC(=O)C(/C=N/n2cnc3ccccc3c2=O)=C(O)C1` the inhibition was 7.64% (inactive).

For `Cc1ccc2nc(/C(C#N)=C/c3cn[nH]c3-c3ccc(F)cc3)[nH]c2c1`, the inhibition was 8.39% (inactive).

With `CCCCN1CCC(O)(c2ccccc2)C(C(=O)c2ccccc2)C1` (stereo not given) the inhibition was -20.5% (inactive).

In the case of `Cc1ccc(-n2nc3cc(C)c(NC(=O)c4cccnc4)cc3n2)cc1`, the inhibition was -15.7% (inactive).

For `COc1ccc(NC(=O)Nc2ncn(Cc3cccc(C(F)(F)F)c3)n2)cc1OC`, the inhibition was -15.8% (inactive).

`CCNC(=O)C1CC(=O)N(Cc2ccc3c(c2)OCO3)C(=Nc2ccc(F)cc2)S1` (stereo not given) was tested, and the inhibition was -9.04% (inactive).

`O=C(CN1C(=O)C2C3C=CC(C3)C2C1=O)NCc1ccc2c(c1)OCO2` (stereo not given) was tested, and the inhibition was -17.4% (inactive).

`Cc1ccc(SCCCCN2C(=O)NC(C)(C)C2=O)cc1` was tested, and the inhibition was -8.35% (inactive).

For `CCCCOc1ccc(-c2ncc(Cl)cn2)cc1`, the inhibition was -14.4% (inactive).

For `CCCCCc1nnc(NC(=O)C2CCCO2)s1` (stereo not given), the inhibition was -22.1% (inactive).

With `O=C(COC(=O)c1ccc[nH]c1=O)NCC1CCCO1` (stereo not given) the inhibition was -31.2% (inactive).

In the case of `CCCCCC(=O)N(CN1C(=O)CCC1=O)c1ccccc1`, the inhibition was -20.9% (inactive).

With `COc1ccccc1NC(=O)c1cc(S(=O)(=O)N2CCOCC2)ccc1Cl` the inhibition was -16.1% (inactive).

For `COc1cc(NC(=O)c2ccccc2)c(OC)cc1Cl`, the inhibition was -9.8% (inactive).

In the case of `COc1ccc(C(=O)NCCN2CCOCC2)cc1OC`, the inhibition was -19.6% (inactive).

For `CNc1nc(NCCOC23CC4CC(CC(C4)C2)C3)nc(OCC(F)(F)F)n1`, the inhibition was -19.7% (inactive).

For `CSc1n[nH]c(NCc2ccc(C)cc2)n1`, the inhibition was -16.7% (inactive).

In the case of `COC(=O)COc1ccc(S(=O)(=O)NCC2CCCO2)cc1Cl` (stereo not given), the inhibition was -21.4% (inactive).

`CCCC(=O)Nc1cccc(Oc2nc(C)cc(C)c2C#N)c1` was tested, and the inhibition was -3.32% (inactive).

`CCn1c(SCC(=O)Nc2cc(F)ccc2C)nnc1-c1ccccc1O` was tested, and the inhibition was -18.5% (inactive).

With `OC(CNCC1CCCO1)Cn1c2ccc(Br)cc2c2cc(Br)ccc21` (stereo not given) the inhibition was -2.62% (inactive).

With `COc1cc(/C=C/C(=O)OCC(=O)NC(=O)NC(C)C)ccc1O` the inhibition was 3.94% (inactive).

For `Cc1cc(Cl)ccc1OCCCC(=O)N1CCOCC1`, the inhibition was -18.9% (inactive).

`N#CC1=C(N)NC(SCc2ccc(Br)cc2)=C(C#N)C12CCCCC2` was tested, and the inhibition was -6.5% (inactive).

For `CCN1CCS/C1=C\C=C\C1=[N+](CC)CCS1`, the inhibition was 63.4%.

With `COc1cc(C(=O)Nc2ccc(-c3nnc(-c4ccco4)o3)cc2)cc(OC)c1OC` the inhibition was -21% (inactive).

For `O=C1CC(N2CCC(c3nc4ccccc4o3)CC2)C(=O)N1Cc1cccs1` (stereo not given), the inhibition was -13.2% (inactive).

In the case of `CCOC(=O)c1c(/N=C/C2=C(O)CCCC2=O)sc(C)c1C`, the inhibition was -13.1% (inactive).

In the case of `CC1(C)CC(=O)C(/C=N/c2ccccn2)=C(O)C1`, the inhibition was 2.22% (inactive).

For `O=C1C=C(c2ccc(Cl)cc2)OC2(CCCC2)O1`, the inhibition was -10.7% (inactive).

For `CCN1CCS/C1=C/C=C/C1=[N+](CC)CCS1`, the inhibition was 61.3%.

For `COc1ccc(S(=O)(=O)Nc2cc(C(C)C)c(O)cc2C)cc1`, the inhibition was -20.4% (inactive).

Source: PubChem BioAssay AID463180 (University of Pittsburgh Molecular Library Screening Center, 2010)
